Results published in the NIST ThermoML archive (doi:10.1021/acs.jced.5b00545).

Details: Liquid; for mass density / kinematic viscosity: 101.33 kPa; for mass density: Pycnometric method; for kinematic viscosity: Capillary tube (Ostwald / Ubbelohde) method; for vapor or sublimation pressure: Closed cell (Static) method

CCCCCC[C@@H](O)CC=CCCCCCCCC(=O)OC [[R]-methyl 12-hydroxy-9-octadecenoate]
Details | kinematic viscosity [m2/s] | mass density [kg/m3] | vapor or sublimation pressure [kPa]
293.16 K | – | 928.5 | –
298.23 K | 2.95e-05 | – | –
303.13 K | 2.35e-05 | – | –
303.17 K | – | 921.2 | –
308.25 K | 1.81e-05 | – | –
313.15 K | 1.49e-05 | – | –
313.33 K | – | 916.7 | –
318.38 K | 1.2e-05 | – | –
323.05 K | – | 910.3 | –
323.08 K | 1.01e-05 | – | –
328.12 K | 8.52e-06 | – | –
333.15 K | 7.25e-06 | – | –
333.25 K | – | 904 | –
338.05 K | 6.26e-06 | – | –
343.1 K | 5.43e-06 | – | –
343.32 K | – | 895.8 | –
348.06 K | 4.76e-06 | – | –
353.06 K | – | 883.3 | –
353.11 K | 4.2e-06 | – | –
358.15 K | 3.73e-06 | – | –
363.38 K | – | 875 | –
373.26 K | – | 865.8 | –
383.23 K | – | 857.5 | –
451.58 K | – | – | 0.232
454.7 K | – | – | 0.276
457.23 K | – | – | 0.319
459.5 K | – | – | 0.361
461.85 K | – | – | 0.41
463.55 K | – | – | 0.449
465.2 K | – | – | 0.49
466.83 K | – | – | 0.533
469.55 K | – | – | 0.61
470.4 K | – | – | 0.637
471.25 K | – | – | 0.665
472.3 K | – | – | 0.7
473.15 K | – | – | 0.73
474.9 K | – | – | 0.794
476.8 K | – | – | 0.868

CCCCCCCCCCCCCCCC(=O)OC [methyl hexadecanoate]
Details | vapor or sublimation pressure [kPa]
407.12 K | 0.13
414.26 K | 0.21
418.18 K | 0.24
422.34 K | 0.27
424.68 K | 0.305
427.54 K | 0.365
429.32 K | 0.415
432.32 K | 0.42
434.18 K | 0.515
437.3 K | 0.545
438.44 K | 0.56
439.6 K | 0.65
441 K | 0.66
445.36 K | 0.84
447.06 K | 0.85
